Data from patent US8686178B2, “Derivative of 18β-glycyrrhetinic acid apt to suppress cancer cells” (Kaohsiung Medical University, priority 2011, dated 2014).

Tests used:
[1] = test system: human bladder cancer cell line NTUB1; assay: Trial (A): cytotoxic effect, IC50 by median-effect analysis; format: cell-based; settings: NTUB1 cells; for IC50: mean ± SD; for cytotoxic effect against cancer cell: with reference to TABLE 2
Source text: For the sake of proving therapeutic effects of the derivatives of 18β-glycyrrhetinic acid of the present invention, including 10, 11, 13-17 and 21-25, in treating of cancer, human bladder cancer cell line NTUB1, human prostate cancer cell line PC3 cataloged as CRL-1435 (reference to J. Formosan Med. Assoc. 1992; 91:608-13), and immortalized normal human urothelial cells SV-HUC1 cataloged as CRL-9520 are purchased from American Type Culture Collection (ATCC; Rockville, USA) and maintained in a culturing medium respectively till at a preferable density to carry out a serial of trials (comprising trial A to G) for evaluating cytotoxicities of the derivatives of 18β-glycyrrhetinic acid against cancer cells, and mechanisms thereof.
In the present invention, the NTUB1 and the PC3 is but not limit to be maintained in RPMI 1640 medium supplemented 10% fetal bovine serum (FBS), 100 unit/mL penicillin-G, 100 μg/mL streptomycin, and 2 mM L-glutamine, yet the SV-HUC1 is maintained in F12 medium supplemented with 10% fetal bovine serum (FBS), 100 unit/mL penicillin-G, 100 μg/mL streptomycin, and 2 mM L-glutamine, culturing at 37° C. in a humidified atmosphere containing 5% CO2 till at a density of 70% per well, followed by repeatedly suspending cells in each well with an ethylene diamine tetra-acetic acid buffer (EDTA buffer; Merck) and counting cell numbers.
In the present invention, the IC50 values of each group are presented as mean±standard deviation (SD).

NTUB1 cells [2] = assay: Trial (C): synergy with cisplatin, MTT assay; format: cell-based, human; settings: NTUB1, 72 hours; for cytotoxic effect applied individually (FIGS. 7, 8): single agent; for synergy with cisplatin (FIGS. 7, 8): 1-50 μM compound with 5/10 μM cisplatin
Protocol: Oncol: Semin. Orig. Invest. by maintaining the NTUB1 cells in various condition of medium (with reference to TABLE 3) at 37° C. for 72 hours, and determining cytotoxicities of each medium via MTT assay. In the trial (C), the viability rates of NTUB1 cells […] are also determined by the absorbance spectrometry at 540 nm with a MRX (DYNEXCO) microplate according to trial (B).

NTUB1 cells [3] = assay: Trial (E): cell cycle progression by flow cytometry (propidium iodide); format: cell-based, human; parameters: Sub-G1 / G1: unit not given here; settings: 50 μM, 24 hours, NTUB1
Protocol: In order to determine a relationship between the derivatives of 18β-glycyrrhetinic acid of the present invention and cell cycle arrest, trial (E) is carried out by analyzing cell cycle progression by flow cytometry. […] After that, cell cycle progression of each group is determined respectively by incubating with 50 μg/mL propidium iodide (Sigma, Co) and 50 μg/mL RNase A (Sigma, Co) in PBS at room temperature for 30 min, and analyzing by FACScan flow cytometer and Cell Quest sofeware.

NTUB1 cells [4] = assay: Trial (F): mitochondrial membrane potential (JC-1) by flow cytometry; format: cell-based, human; settings: 10 μM, 30 minutes, JC-1, NTUB1
Protocol: In trial (F), mitochondrial membrane potential (MMP) in NTUB1 cells is measured according to a journal article published by Martin et al., at 2009 in PloS one, in which a dysfunction of the mitochondria caused by ROS induced MPP decrease is supposed.
Referring to TABLE 6, the NTUB1 cells at a density of 3×10^5 cells/ml are prepared and assigned into 5 groups, including F1 to F5, to incubate in 10 μM carbonyl cyanide 3-chlorophenylhydrazone (CCCP), and 10, 25 and 50 μM of 25 respectively, for 30 minutes, followed by adding 1 μM of 5,5′,6,6′-tetrachloro-1,1′,3,3′-tetraethylbenzimidaolylcarbocyanine iodide (JC-1) (Molecular Probes, Eugene, Oreg., USA) in each group. Then, the NTUB1 cells in each group are washed with PBS buffer for 3 times, collected in PBS/2% BSA, washed twice by centrifugating at 800 g, 5 minutes and resuspending in 0.3 mL PBS/2% BSA, and finally analyzed by a FACSCalibur flow cytometer (Becton Dickinson), with the FACSCalibur flow cytometer determining and calculating a ratio of JC-1 aggregates (red fluorescence) to JC-1 monomers (green fluorescence) based on levels of MMP in each group.

Compound	IC50 [1]	other results
C=C(C)[C@@H]1CC[C@]2(C)[C@H](C(=O)C=C3[C@@H]4C[C@@](C)(C(=O)OCc5ccccc5)CC[C@]4(C)CC[C@]32C)[C@@]1(C)CCC(=O)NC(C)C [Compound 17, 3-isopropylcarbamoyl-11-oxo-18β-3,4-seco-olean-4(23), 12-dien 30-benzyl ester]	30.1 ± 2.41 µM	
C=C(C)C1CCC2(C)C(C(=O)C=C3C4CC(C)(C(=O)OCc5ccccc5)CCC4(C)CCC32C)C1(C)CCC(=O)OCC (stereo not drawn) [Compound 13, 3,4-seco-11-oxo-18β-olean-4(23),12-dien-3,30-dioic acid 3-ethyl,30-benzyl ester]	27.8 ± 6.48 µM	
C=C(C)[C@@H]1CC[C@]2(C)[C@H](C(=O)C=C3[C@@H]4C[C@@](C)(C(=O)OCc5ccccc5)CC[C@]4(C)CC[C@]32C)[C@@]1(C)CCC(=O)OC [Compound 12, 3,4-seco-11-oxo-18β-olean-4(23), 12-dien-3,30-dioic acid 3-methyl-30-benzyl ester]	9.41 ± 2.72 µM	cytotoxic effect applied individually (FIGS. 7, 8) (NTUB1 cells [2]): cytotoxic effects against to cancer cells; synergy with cisplatin (FIGS. 7, 8) (NTUB1 cells [2]): dramatic synergy; cytotoxic effect against cancer cell [1]: significantly suppress the growth of cancer cells with a lower concentrate
C=C(C)[C@@H]1CC[C@]2(C)[C@H](C(=O)C=C3[C@@H]4C[C@@](C)(C(=O)NC(C)C)CC[C@]4(C)CC[C@]32C)[C@@]1(C)CCC(=O)OC [Compound 20, 30-Isopropylcarbamoyl-11-oxo-18β-3,4-seco-olean-4(23),12-diene 3-methyl ester]	13.1 ± 5.27 µM	cytotoxic effect applied individually (FIGS. 7, 8) (NTUB1 cells [2]): cytotoxic effects against to cancer cells; synergy with cisplatin (FIGS. 7, 8) (NTUB1 cells [2]): dramatic synergy
OO [Compound H2O2, H2O2, reference compound]		G1 (NTUB1 cells [3]): 27.15; G2/M (NTUB1 cells [3]): 20.18; S (NTUB1 cells [3]): 23.84; Sub-G1 (NTUB1 cells [3]): 9.48
C=C(C)[C@@H]1CC[C@]2(C)[C@H](C(=O)C=C3[C@@H]4C[C@@](C)(C(=O)NC(C)C)CC[C@]4(C)CC[C@]32C)[C@@]1(C)CCC(=O)NCCC [Compound 24, 30-isopropyl carbamoyl-11-oxo-18β-3,4-seco-olean-4(23), 12-dien 3-propyl carbamate]	> 50 µM	
COC(=O)C1(C)CCC2(C)CCC3(C)C(=CC(=O)C4C5(C)CCC(=O)C(C)(C)C5CCC43C)C2C1 (stereo not drawn) [Compound 3]	56.5 ± 14.3 µM	
CC1(C(=O)O)CCC2(C)CCC3(C)C(=CC(=O)C4C5(C)CCC(=O)C(C)(C)C5CCC43C)C2C1 (stereo not drawn) [Compound 2]	18.6 ± 1.64 µM	
C=C(C)[C@@H]1CC[C@]2(C)[C@H](C(=O)C=C3[C@@H]4C[C@@](C)(C(=O)OC)CC[C@]4(C)CC[C@]32C)[C@@]1(C)CCC(=O)NC(C)C [Compound 11, 3-isopropyl carbamoyl-11-oxo-18β-3,4-seco-olean-4(23),12-dien 30-methyl ester]	31.4 ± 0.55 µM	
C=C(C)[C@@H]1CC[C@]2(C)[C@H](C(=O)C=C3[C@@H]4C[C@@](C)(C(=O)OC)CC[C@]4(C)CC[C@]32C)[C@@]1(C)CCC(=O)O [Compound 8]	20.7 ± 4.97 µM	
CC1(C(=O)Nc2ccccc2)CCC2(C)CCC3(C)C(=CC(=O)C4C5(C)CCC(=O)OC(C)(C)C5CCC43C)C2C1 (stereo not drawn) [Compound 26]	16 ± 5.3 µM	
C=C(C)[C@@H]1CC[C@]2(C)[C@H](C(=O)C=C3[C@@H]4C[C@@](C)(C(=O)NC(C)C)CC[C@]4(C)CC[C@]32C)[C@@]1(C)CCC(=O)OC(C)C [Compound 22, 30-isopropyl carbamoyl-11-oxo-18β-3,4-seco-olean-4(23),12-dien 3-isopropyl ester]	29.2 ± 26.6 µM	
C=C(C)[C@@H]1CC[C@]2(C)[C@H](C(=O)C=C3[C@@H]4C[C@@](C)(C(=O)OCc5ccccc5)CC[C@]4(C)CC[C@]32C)[C@@]1(C)CCC(=O)O [Compound 9]	2.34 ± 0.28 µM	cytotoxic effect against cancer cell [1]: significantly suppress the growth of cancer cells with a lower concentrate
C=C(C)[C@@H]1CC[C@]2(C)[C@H](C(=O)C=C3[C@@H]4C[C@@](C)(C(=O)OCc5ccccc5)CC[C@]4(C)CC[C@]32C)[C@@]1(C)CCC(=O)NCC [Compound 15, 3-ethyl carbamoyl-11-oxo-18β-3,4-seco-olean-4(23),12-dien-30-benzyl ester]	42.7 ± 11.2 µM	
C=C(C)[C@@H]1CC[C@]2(C)[C@H](C(=O)C=C3[C@@H]4C[C@@](C)(C(=O)OCc5ccccc5)CC[C@]4(C)CC[C@]32C)[C@@]1(C)CCC(=O)NCCC [Compound 16, 3-propylcarbamoyl-11-oxo-18β-3,4-seco-olean-4(23),12-dien 30-benzyl ester]	49.4 ± 11.5 µM	
CC1(C(=O)O)CCC2(C)CCC3(C)C(=CC(=O)C4C5(C)CCC(=O)OC(C)(C)C5CCC43C)C2C1 (stereo not drawn) [Compound 5]	73.5 ± 35.1 µM	
C=C(C)C1CCC2(C)C(C(=O)C=C3C4CC(C)(C(=O)OCc5ccccc5)CCC4(C)CCC32C)C1(C)CCC(=O)OC(C)C (stereo not drawn) [Compound 14, 3,4-seco-11-oxo-18β-olean-4(23),12-dien-3,30. dioic acid 3-isopropyl-30-benzyl ester]	18.2 ± 1.58 µM	
C=C(C)C1CCC2(C)C(C(=O)C=C3C4CC(C)(C(=O)OC)CCC4(C)CCC32C)C1(C)CCC(=O)OC(C)C (stereo not drawn) [Compound 10, 3,4-seco-11-oxo-18β-olean-4(23),12-dien-3,30-dioic acid 3-isopropyl 30-methyl, ester]	25.3 ± 2.28 µM	
CC1(C)[C@@H](O)CC[C@]2(C)[C@H]3C(=O)C=C4[C@@H]5C[C@@](C)(C(=O)O)CC[C@]5(C)CC[C@@]4(C)[C@]3(C)CC[C@@H]12 [Compound 1, 18β-glycyrrhetinic acid]	27.3 ± 5.17 µM	
CC1(C(=O)OCc2ccccc2)CCC2(C)CCC3(C)C(=CC(=O)C4C5(C)CCC(=O)C(C)(C)C5CCC43C)C2C1 (stereo not drawn) [Compound 4]	20.2 ± 5.1 µM	
N#CC(C#N)=NNc1cccc(Cl)c1 [CCCP, carbonyl cyanide 3-chlorophenylhydrazone, reference compound]		R1 (%) (NTUB1 cells [4]): 52.06%
CC1(C(=O)OCc2ccccc2)CCC2(C)CCC3(C)C(=CC(=O)C4C5(C)CCC(=O)OC(C)(C)C5CCC43C)C2C1 (stereo not drawn) [Compound 7]	57.6 ± 8.8 µM	
COC(=O)C1(C)CCC2(C)CCC3(C)C(=CC(=O)C4C5(C)CCC(=O)OC(C)(C)C5CCC43C)C2C1 (stereo not drawn) [Compound 6]	24.3 ± 3.98 µM	
C=C(C)[C@@H]1CC[C@]2(C)[C@H](C(=O)C=C3[C@@H]4C[C@@](C)(C(=O)NC(C)C)CC[C@]4(C)CC[C@]32C)[C@@]1(C)CCC(=O)O [Compound 19]	17.5 ± 2.11 µM	
CC(C)NC(=O)C1(C)CCC2(C)CCC3(C)C(=CC(=O)C4C5(C)CCC(=O)OC(C)(C)C5CCC43C)C2C1 (stereo not drawn) [Compound 18]	25.7 ± 1.81 µM	
C=C(C)[C@@H]1CC[C@]2(C)[C@H](C(=O)C=C3[C@@H]4C[C@@](C)(C(=O)Nc5ccccc5)CC[C@]4(C)CC[C@]32C)[C@@]1(C)CCC(=O)O [Compound 27]	3.31 ± 0.61 µM	cytotoxic effect against cancer cell [1]: significantly suppress the growth of cancer cells with a lower concentrate
